Source: ChEMBL document CHEMBL3526147, “Tissue distribution and characterization of drug-related material in rats and dogs after repeated oral administration of casopitant” (Drug Metab Dispos, 2011)

Legend:
Set-up in all cases: dosed compound name [14C]Casopitant, route oral
Conditions in all cases: in vivo
[1] = Drug level in Sprague-Dawley rat skeletal muscle assessed as free base level at 60 mg/kg/day, po administered as repeat dose measured after 24 hrs on day 27; assay type: ADME, organism-based, Muscle tissue
Plasma [2] = test: Drug level in beagle dog plasma assessed as free base level at 40 mg/kg/day, po administered as repeat dose measured after 24 hrs on day 34; assay type: ADME, organism-based, Canis lupus familiaris
Blood [3] = test: Drug level in Sprague-Dawley rat blood assessed as free base level at 60 mg/kg/day, po administered as repeat dose measured after 24 hrs on day 27; assay type: ADME, organism-based
Plasma [4] = test: Drug level in Sprague-Dawley rat plasma assessed as free base level at 60 mg/kg/day, po administered as repeat dose measured after 24 hrs on day 20; assay type: ADME, organism-based
[5] = Drug level in Sprague-Dawley rat myocardium assessed as free base level at 60 mg/kg/day, po administered as single dose measured after 24 hrs on day 1; assay type: ADME, organism-based
Kidney [6] = test: Drug level in Sprague-Dawley rat kidney assessed as free base level at 60 mg/kg/day, po administered as repeat dose measured after 24 hrs on day 40; assay type: ADME, organism-based
[7] = Drug level in beagle dog blood assessed as free base level at 40 mg/kg/day, po administered as single dose measured after 24 hrs on day 1; assay type: ADME, organism-based, Canis lupus familiaris
[8] = Drug level in Sprague-Dawley rat myocardium assessed as free base level at 60 mg/kg/day, po administered as repeat dose measured after 24 hrs on day 40; assay type: ADME, organism-based
Liver [9] = test: Drug level in Sprague-Dawley rat liver assessed as free base level at 60 mg/kg/day, po administered as repeat dose measured after 24 hrs on day 27; assay type: ADME, organism-based
[10] = Drug level in Sprague-Dawley rat skeletal muscle assessed as free base level at 60 mg/kg/day, po administered as single dose measured after 24 hrs on day 1; assay type: ADME, organism-based, Muscle tissue
[11] = Drug level in beagle dog kidney assessed as free base level at 40 mg/kg/day, po administered as repeat dose measured after 24 hrs on day 14; assay type: ADME, organism-based, Canis lupus familiaris
Liver [12] = test: Drug level in beagle dog liver assessed as free base level at 40 mg/kg/day, po administered as repeat dose measured after 24 hrs on day 34; assay type: ADME, organism-based, Canis lupus familiaris
Liver [13] = test: Drug level in beagle dog liver assessed as free base level at 40 mg/kg/day, po administered as repeat dose measured after 24 hrs on day 14; assay type: ADME, organism-based, Canis lupus familiaris
Kidney [14] = test: Drug level in Sprague-Dawley rat kidney assessed as free base level at 60 mg/kg/day, po administered as repeat dose measured after 24 hrs on day 27; assay type: ADME, organism-based
Blood [15] = test: Drug level in Sprague-Dawley rat blood assessed as free base level at 60 mg/kg/day, po administered as single dose measured after 24 hrs on day 1; assay type: ADME, organism-based
[16] = Drug level in Sprague-Dawley rat skeletal muscle assessed as free base level at 60 mg/kg/day, po administered as repeat dose measured after 24 hrs on day 40; assay type: ADME, organism-based, Muscle tissue
[17] = Drug level in beagle dog skeletal muscle assessed as free base level at 40 mg/kg/day, po administered as repeat dose measured after 24 hrs on day 34; assay type: ADME, organism-based, Canis lupus familiaris, Muscle tissue
Lung [18] = test: Drug level in Sprague-Dawley rat lung assessed as free base level at 60 mg/kg/day, po administered as repeat dose measured after 24 hrs on day 20; assay type: ADME, organism-based
[19] = Drug level in beagle dog lung assessed as free base level at 40 mg/kg/day, po administered as repeat dose measured after 24 hrs on day 14; assay type: ADME, organism-based, Canis lupus familiaris
Kidney [20] = test: Drug level in Sprague-Dawley rat kidney assessed as free base level at 60 mg/kg/day, po administered as single dose measured after 24 hrs on day 1; assay type: ADME, organism-based
Kidney [21] = test: Drug level in Sprague-Dawley rat kidney assessed as free base level at 60 mg/kg/day, po administered as repeat dose measured after 24 hrs on day 20; assay type: ADME, organism-based
Plasma [22] = test: Drug level in beagle dog plasma assessed as free base level at 40 mg/kg/day, po administered as repeat dose measured after 24 hrs on day 14; assay type: ADME, organism-based, Canis lupus familiaris
Blood [23] = test: Drug level in Sprague-Dawley rat blood assessed as free base level at 60 mg/kg/day, po administered as repeat dose measured after 24 hrs on day 40; assay type: ADME, organism-based
Plasma [24] = test: Drug level in beagle dog plasma assessed as free base level at 40 mg/kg/day, po administered as single dose measured after 2 hrs on day 1; assay type: ADME, organism-based, Canis lupus familiaris
Lung [25] = test: Drug level in Sprague-Dawley rat lung assessed as free base level at 60 mg/kg/day, po administered as single dose measured after 24 hrs on day 1; assay type: ADME, organism-based
[26] = Drug level in beagle dog lung assessed as free base level at 40 mg/kg/day, po administered as repeat dose measured after 24 hrs on day 34; assay type: ADME, organism-based, Canis lupus familiaris
[27] = Drug level in beagle dog kidney assessed as free base level at 40 mg/kg/day, po administered as repeat dose measured after 24 hrs on day 34; assay type: ADME, organism-based, Canis lupus familiaris
Plasma [28] = test: Drug level in Sprague-Dawley rat plasma assessed as free base level at 60 mg/kg/day, po administered as repeat dose measured after 24 hrs on day 27; assay type: ADME, organism-based
Plasma [29] = test: Drug level in Sprague-Dawley rat plasma assessed as free base level at 60 mg/kg/day, po administered as single dose measured after 2 hrs on day 1; assay type: ADME, organism-based
[30] = Drug level in beagle dog blood assessed as free base level at 40 mg/kg/day, po administered as repeat dose measured after 24 hrs on day 14; assay type: ADME, organism-based, Canis lupus familiaris
Liver [31] = test: Drug level in Sprague-Dawley rat liver assessed as free base level at 60 mg/kg/day, po administered as repeat dose measured after 24 hrs on day 20; assay type: ADME, organism-based
Plasma [32] = test: Drug level in Sprague-Dawley rat plasma assessed as free base level at 60 mg/kg/day, po administered as single dose measured after 2 hrs on day 20; assay type: ADME, organism-based
[33] = Drug level in beagle dog blood assessed as free base level at 40 mg/kg/day, po administered as single dose measured after 2 hrs on day 1; assay type: ADME, organism-based, Canis lupus familiaris
[34] = Drug level in beagle dog blood assessed as free base level at 40 mg/kg/day, po administered as repeat dose measured after 2 hrs on day 14; assay type: ADME, organism-based, Canis lupus familiaris
[35] = Drug level in beagle dog skeletal muscle assessed as free base level at 40 mg/kg/day, po administered as repeat dose measured after 24 hrs on day 14; assay type: ADME, organism-based, Canis lupus familiaris, Muscle tissue
Plasma [36] = test: Drug level in beagle dog plasma assessed as free base level at 40 mg/kg/day, po administered as repeat dose measured after 2 hrs on day 14; assay type: ADME, organism-based, Canis lupus familiaris
[37] = Drug level in Sprague-Dawley rat skeletal muscle assessed as free base level at 60 mg/kg/day, po administered as repeat dose measured after 24 hrs on day 20; assay type: ADME, organism-based, Muscle tissue
[38] = Drug level in beagle dog blood assessed as free base level at 40 mg/kg/day, po administered as repeat dose measured after 24 hrs on day 34; assay type: ADME, organism-based, Canis lupus familiaris
[39] = Drug level in beagle dog myocardium assessed as free base level at 40 mg/kg/day, po administered as repeat dose measured after 24 hrs on day 14; assay type: ADME, organism-based, Canis lupus familiaris
[40] = Drug level in Sprague-Dawley rat myocardium assessed as free base level at 60 mg/kg/day, po administered as repeat dose measured after 24 hrs on day 20; assay type: ADME, organism-based
Lung [41] = test: Drug level in Sprague-Dawley rat lung assessed as free base level at 60 mg/kg/day, po administered as repeat dose measured after 24 hrs on day 40; assay type: ADME, organism-based
[42] = Drug level in beagle dog myocardium assessed as free base level at 40 mg/kg/day, po administered as repeat dose measured after 24 hrs on day 34; assay type: ADME, organism-based, Canis lupus familiaris
Lung [43] = test: Drug level in Sprague-Dawley rat lung assessed as free base level at 60 mg/kg/day, po administered as repeat dose measured after 24 hrs on day 27; assay type: ADME, organism-based
Liver [44] = test: Drug level in Sprague-Dawley rat liver assessed as free base level at 60 mg/kg/day, po administered as single dose measured after 24 hrs on day 1; assay type: ADME, organism-based
[45] = Drug level in Sprague-Dawley rat myocardium assessed as free base level at 60 mg/kg/day, po administered as repeat dose measured after 24 hrs on day 27; assay type: ADME, organism-based
Liver [46] = test: Drug level in Sprague-Dawley rat liver assessed as free base level at 60 mg/kg/day, po administered as repeat dose measured after 24 hrs on day 40; assay type: ADME, organism-based
Plasma [47] = test: Drug level in Sprague-Dawley rat plasma assessed as free base level at 60 mg/kg/day, po administered as repeat dose measured after 24 hrs on day 40; assay type: ADME, organism-based
Plasma [48] = test: Drug level in Sprague-Dawley rat plasma assessed as free base level at 60 mg/kg/day, po administered as single dose measured after 24 hrs on day 1; assay type: ADME, organism-based
Plasma [49] = test: Drug level in beagle dog plasma assessed as free base level at 40 mg/kg/day, po administered as single dose measured after 24 hrs on day 1; assay type: ADME, organism-based, Canis lupus familiaris
Blood [50] = test: Drug level in Sprague-Dawley rat blood assessed as free base level at 60 mg/kg/day, po administered as repeat dose measured after 24 hrs on day 20; assay type: ADME, organism-based

## CC(=O)N1CCN([C@H]2CCN([14C](=O)N(C)[C@H](C)c3cc(C(F)(F)F)cc(C(F)(F)F)c3)[C@@H](c3ccc(F)cc3C)C2)CC1.CS(=O)(=O)O
[1]
  Radiolabel recovery: 10.7 ugequiv/g
Plasma [2]
  Radiolabel recovery: 11.6 ugequiv/g
Blood [3]
  Radiolabel recovery: 7.67 ugequiv/g
Plasma [4]
  Radiolabel recovery: 12.4 ugequiv/g
[5]
  Radiolabel recovery: 34.6 ugequiv/g
Kidney [6]
  Radiolabel recovery: 39.2 ugequiv/g
[7]
  Radiolabel recovery: 9.4 ugequiv/g
[8]
  Radiolabel recovery: 26.7 ugequiv/g
Liver [9]
  Radiolabel recovery: 240 ugequiv/g
[10]
  Radiolabel recovery: 18.3 ugequiv/g
[11]
  Radiolabel recovery: 308 ugequiv/g
Liver [12]
  Radiolabel recovery: 612 ugequiv/g
Liver [13]
  Radiolabel recovery: 1050 ugequiv/g
Kidney [14]
  Radiolabel recovery: 64.6 ugequiv/g
Blood [15]
  Radiolabel recovery: 5.6 ugequiv/g
[16]
  Radiolabel recovery: 7.74 ugequiv/g
[17]
  Radiolabel recovery: 21.3 ugequiv/g
Lung [18]
  Radiolabel recovery: 405 ugequiv/g
[19]
  Radiolabel recovery: 905 ugequiv/g
Kidney [20]
  Radiolabel recovery: 59.1 ugequiv/g
Kidney [21]
  Radiolabel recovery: 256 ugequiv/g
Plasma [22]
  Radiolabel recovery: 49.2 ugequiv/g
Blood [23]
  Radiolabel recovery: 3.63 ugequiv/g
Plasma [24]
  Radiolabel recovery: 20.8 ugequiv/g
Lung [25]
  Radiolabel recovery: 135 ugequiv/g
[26]
  Radiolabel recovery: 345 ugequiv/g
[27]
  Radiolabel recovery: 102 ugequiv/g
Plasma [28]
  Radiolabel recovery: 1.92 ugequiv/g
Plasma [29]
  Radiolabel recovery: 6.06 ugequiv/g
[30]
  Radiolabel recovery: 35.3 ugequiv/g
Liver [31]
  Radiolabel recovery: 545 ugequiv/g
Plasma [32]
  Radiolabel recovery: 18.5 ugequiv/g
[33]
  Radiolabel recovery: 11.3 ugequiv/g
[34]
  Radiolabel recovery: 47.4 ugequiv/g
[35]
  Radiolabel recovery: 99.2 ugequiv/g
Plasma [36]
  Radiolabel recovery: 69.5 ugequiv/g
[37]
  Radiolabel recovery: 28.1 ugequiv/g
[38]
  Radiolabel recovery: 9.95 ugequiv/g
[39]
  Radiolabel recovery: 243 ugequiv/g
[40]
  Radiolabel recovery: 79.6 ugequiv/g
Lung [41]
  Radiolabel recovery: 96.8 ugequiv/g
[42]
  Radiolabel recovery: 96.2 ugequiv/g
Lung [43]
  Radiolabel recovery: 136 ugequiv/g
Liver [44]
  Radiolabel recovery: 121 ugequiv/g
[45]
  Radiolabel recovery: 32.9 ugequiv/g
Liver [46]
  Radiolabel recovery: 90.4 ugequiv/g
Plasma [47]
  Radiolabel recovery: 0.246 ugequiv/g
Plasma [48]
  Radiolabel recovery: 5.54 ugequiv/g
Plasma [49]
  Radiolabel recovery: 9.68 ugequiv/g
Blood [50]
  Radiolabel recovery: 14.5 ugequiv/g
